Data as given in patent US10703748B2, “Diazanaphthalen-3-yl carboxamides and preparation and use thereof” (Samumed, LLC, priority 2017, dated 2020).

How the values were obtained:
DYRK1A kinase = DYRK1A kinase (Homo sapiens, UniProt Q13627); test: DYRK1A kinase activity (Ser/Thr 18 peptide Z-lyte FRET assay); format: biochemical; settings: recombinant DYRK1A, 30 μM ATP, one hour at room temperature;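 note: kinase activity read as coumarin/fluorescein emission ratio after development step, with unphosphorylated and phosphorylated peptide forms setting 0% and 100% controls, values from dose-response curves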
GSK3β kinase = GSK3β kinase (Homo sapiens, UniProt P49841); test: GSK3β kinase activity (Ser/Thr 09 peptide Z-lyte FRET assay); format: biochemical; settings: recombinant kinase, 46 μM ATP, one hour at room temperature; read-out: EC50
[1] = tested on: Tau phosphorylation at Ser396 (pSer396); test: Tau phosphorylation at Ser396 (pSer396) in SH-SY5Y cells, ELISA / western blot; format: cell-based, human; settings: Homo sapiens; SH-SY5Y cells, overnight (16-18 h); read-out: pSer396 Tau EC50;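 note: decrease in pSer396 Tau measured in lysates of treated cells by colorimetric ELISA or chemiluminescent western blot, same pSer396 antibody for both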
Description: Two days before treatment, cells were seeded onto 96 well plates at 5×10^4 cells/well.
The above synthesized compounds were screened using the cell assay procedure to assess decrease Tau phosphorylation at Ser396 (pSer396) described below.
Cells were lysed with RIPA buffer complemented with phosphatase and protease inhibitors then lysates were spun down at 12,000 g for 10 min to remove any cellular debris.

[2] = tested on: Tau phosphorylation at Threonine 212 (pT212Tau); test: Tau phosphorylation at Threonine 212 (pT212Tau) in Dyrk1a- and MAPT-overexpressing HEK293T cells, sandwich ELISA; format: cell-based; settings: Homo sapiens, HEK-293T, overnight (16-18 hours), read-out: Thr212 EC50
Description: HEK293T cells (transfectable human embryonic kidney cells) were cultured in DMEM medium supplemented with 10% FBS and 1% penicillin/streptomycin.
HEK293T cells were transiently transfected to overexpress Dyrk1a and microtubule-associated protein Tau (MAPT) genes. Specifically, Dyrk1a and MAPT expression vectors were obtained from OriGene (10 μg of each, catalog numbers SC314641 and RC216166, respectively). A MaxiPrep for each vector was ordered and received from GeneWiz, yielding 874.5 μg (resuspended at […]) of the Dyrk1a expression vector, and 898 μg (resuspended at […]) of MAPT.
HEK293T cells were seeded at 1.0×10^7 cells in 10 mL per T-75 flask. […] One T-75 flask was designated as a no-vector negative control for pT212Tau signal.
After 4-6 hours of incubation in transfection reagents, transiently double transfected HEK293T cells were dissociated by treatment with trypsin EDTA and seeded at 1.0×10^5 cells in 100 μL per well in 96-well plates. No-vector negative controls were seeded in separate 96-well plates to avoid the risk of the negative control cells picking up the overexpression during incubation. At the time of seeding, DMSO-resuspended Samumed compounds were dispensed to eight wells as a serial dilution from 10 μM to 4.6 nM final concentration in medium, or at 0.12 μM to 0.05 nM with particularly potent compounds. Cells were exposed to the representative compounds overnight (16-18 hours) in a 37° C. incubator.
96-Well flat-bottom plates were coated with 100 μL per well anti-HT7 capture antibody (ThermoFisher, MN1000) diluted 1:300 in 1×PBS at 4° C. overnight, with shaking at 500 rpm. After overnight capture antibody incubation, coated plates were washed four times with 200 μL per well of 1×PBS-0.05% Tween-20, and blocked for 1 hour with 200 μL per well of 1×PBS with 2% BSA. After 1 hour of blocking, plates were washed four times with 200 μL per well of 1×PBS-0.05% Tween-20, prior to sample loading.
Wells of compound-treated cells were visually checked for cell death before being washed with 200 μL per well of 1×DPBS supplemented with phosphatase inhibitor diluted to 1×. Cells were then lysed with 100 μL 1×RIPA buffer supplemented with phosphatase and protease inhibitors (each diluted to a final 1×). Cells were shaken at 500 rpm, 4° C. for 20 minutes prior to further lysis (via manual scraping) and transfer to 96-well V-bottom collection plates (Corning, 3894). V-bottom plates were centrifuged at 4000 rpm, 4° C., for 15 minutes, and 100 μL of lysate supernatant from each well was directly tested for pT212Tau signal by sandwich ELISA.
Specifically, lysates were directly transferred to the coated and blocked ELISA plates for 2 hours before plates were washed four times with 200 μL per well of 1×PBS-0.05% Tween-20 and probed with 100 μL per well of anti-pT212Tau antibody (ThermoFisher, 44-740G) diluted 1:200 in 1×PBS for 2 hours. Plates were washed four times with 200 μL per well of 1×PBS-0.05% Tween-20 and probed with 100 μL per well of anti-rabbit/HRP conjugate (Cell Signaling Technology, 7074S) diluted 1:600 in 1×PBS for 1 hour. Plates were washed four times with 200 μL per well of 1×PBS-0.05% Tween-20 before 100 μL per well of TMB substrate solution (ThermoFisher, N301) was added. When colour development was observed, 100 μL per well of stop solution (ThermoFisher, N600) was added, and colorimetric detection of pT212Tau signal was read at 450 nm with the Cytation 3 Cell Imaging Multi-Mode Reader (BioTek). The signal was used to plot, draw the curves fitting, and determine the EC50 values in GraphPad Prism for tested representative compounds.

[3] = tested on: secreted cytokines TNFα, IL-6 and KC-GRO; test: Secreted cytokines in Lipopolysaccharide-stimulated BV-2 cells (Table 9 does not say which cytokine); format: cell-based, mouse; settings: Mus musculus, BV-2, 5 h; read-out: EC50
[4] = tested on: SW480 colon carcinoma cells; test: Cell viability assay (CellTiter-Glo); settings: Homo sapiens; for EC50: SW480, 96 h; for inhibition at 10 µM: SW480, read-out: percent inhibition at 10 μM
[5] = tested on: Wnt-responsive Sp5-Luc reporter in SW480 colon carcinoma cells; test: Screening assay for Wnt activity (Sp5-Luc reporter gene assay); settings: Homo sapiens; for EC50: SW480; for inhibition at 10 µM: SW480, read-out: percent inhibition at 10 μM
IL-6 = IL-6 inhibition in LPS-stimulated human peripheral blood mononuclear cells (HTRF); settings: Homo sapiens, PBMC; for EC50: 22 h; for inhibition at 10 µM: read-out: percentage in parentheses after EC50 >10
[6] = tested on: α-smooth muscle actin (aSMA) positive LL29 cells; test: Inhibition of the fibrotic process: αSMA staining in TGF-β1 treated LL29 fibroblasts from IPF patients; settings: Homo sapiens, Fibroblast; for EC50: 96 h; for inhibition at 10 µM: read-out: percentage in parentheses after EC50 >10

GSK3β kinase, sequence (P49841 whole entry): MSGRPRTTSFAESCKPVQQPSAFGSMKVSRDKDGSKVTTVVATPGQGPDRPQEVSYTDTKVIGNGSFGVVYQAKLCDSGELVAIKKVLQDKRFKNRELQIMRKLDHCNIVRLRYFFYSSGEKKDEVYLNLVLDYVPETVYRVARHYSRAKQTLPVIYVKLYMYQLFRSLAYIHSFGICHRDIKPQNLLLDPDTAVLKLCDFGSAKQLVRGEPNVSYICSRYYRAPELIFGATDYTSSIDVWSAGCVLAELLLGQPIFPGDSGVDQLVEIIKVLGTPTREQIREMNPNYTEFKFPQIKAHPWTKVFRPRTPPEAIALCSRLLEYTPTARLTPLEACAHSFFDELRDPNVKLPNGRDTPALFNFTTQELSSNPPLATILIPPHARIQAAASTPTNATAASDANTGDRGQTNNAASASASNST

Row | Structure (SMILES) | EC50 (DYRK1A kinase) | EC50 (GSK3β kinase) | EC50 [1] | EC50 [2] | EC50 [3] | EC50 [4] | inhibition at 10 µM [4] | EC50 [5] | EC50 (IL-6) | inhibition at 10 µM (IL-6) | EC50 [6] | inhibition at 10 µM [5] | inhibition at 10 µM [6]
1 | C[C@H]1CCCN1CC(=O)Nc1cc2nc(-c3cnn(C)c3)ccc2cn1 [Compound 47, (S)—N-(2-(1-methyl-1H-pyrazol-4-yl)-1,6-naphthyridin-7-yl)-2-(2-methylpyrrolidin-1-yl)acetamide] | 36 nM | 200 nM | > 10000 nM | 668 nM | 260 nM | > 10000 nM | 35.2% | 5210 nM | > 10000 nM | 0% | 7200 nM | – | –
2 | CN1CCN(c2cccc(C(=O)Nc3cc4cc(-c5cnn(C)c5)ccc4nn3)c2)CC1 [Compound 1953, N-(6-(1-Methyl-1H-pyrazol-4-yl)cinnolin-3-yl)-3-(4-methylpiperazin-1-yl) benzamide] | 317 nM | 2620 nM | > 10000 nM | > 10000 nM | 2900 nM | > 10000 nM | 7.8% | > 10000 nM | > 10000 nM | 12.8% | > 10000 nM | 9.7% | 55.5%
3 | CN1CCC(Oc2ccc(C(=O)Nc3cc4cc(-c5cnn(C)c5)cnc4cn3)cc2)CC1 [Compound 2865, N-(3-(1-Methyl-1H-pyrazol-4-yl)-1,7-naphthyridin-6-yl)-4-((1-methylpiperidin-4-yl)oxy)benzamide] | 41 nM | > 10000 nM | > 10000 nM | 122 nM | 160 nM | 4380 nM | – | 3020 nM | 9610 nM | – | 5120 nM | – | –
4 | CN1CCN(c2cc(C(=O)Nc3cc4cc(-c5cn(C)nn5)cnc4cn3)ccn2)CC1 [Compound 3098, N-(3-(1-Methyl-1H-1,2,3-triazol-4-yl)-1,7-naphthyridin-6-yl)-2-(4-methylpiperazin-1-yl)isonicotinamide] | 96 nM | > 10000 nM | > 10000 nM | 2000 nM | – | > 10000 nM | 14.4% | > 10000 nM | > 10000 nM | 4.7% | > 10000 nM | 14.9% | 8.3%
5 | Cn1cc(-c2cnc3cnc(NC(=O)c4ccnc(N5CCNCC5)c4)cc3c2)nn1 [Compound 3105, N-(3-(1-Methyl-1H-1,2,3-triazol-4-yl)-1,7-naphthyridin-6-yl)-2-(piperazin-1-yl)isonicotinamide] | 147 nM | > 10000 nM | > 10000 nM | 7800 nM | – | 9750 nM | – | 4160 nM | > 10000 nM | 8% | > 10000 nM | – | 21.8%
6 | Cn1cc(-c2cc3cc(NC(=O)C4CCNCC4)ncc3cn2)cn1 [Compound 3638, N-(6-(1-Methyl-1H-pyrazol-4-yl)-2,7-naphthyridin-3-yl)piperidine-4-carboxamide] | 6 nM | 27 nM | 1500 nM | 112 nM | 1400 nM | 6920 nM | – | 593 nM | > 10000 nM | 6.3% | > 10000 nM | – | 34.9%
7 | CC(C)CN1CCC(C(=O)Nc2cc3cc(-c4cnn(C)c4)ncc3cn2)CC1 [Compound 3643, 1-Isobutyl-N-(6-(1-methyl-1H-pyrazol-4-yl)-2,7-naphthyridin-3-yl) piperidine-4-carboxamide] | 10 nM | 31 nM | 102 nM | 30 nM | 3900 nM | 6990 nM | – | 73 nM | > 10000 nM | 9.8% | 2500 nM | – | –
8 | Cn1cc(-c2cc3cc(NC(=O)C4CCN(Cc5ncccn5)CC4)ncc3cn2)cn1 [Compound 3727, N-(6-(1-Methyl-1H-pyrazol-4-yl)-2,7-naphthyridin-3-yl)-1-(pyrimidin-2-ylmethyl)piperidine-4-carboxamide] | 4 nM | 18 nM | 398 nM | 15 nM | > 10000 nM | 6660 nM | – | 426 nM | > 10000 nM | 6.2% | 149 nM | – | –
9 | Cn1cc(-c2cc3cc(NC(=O)c4ccnc(N5CCNCC5)c4)ncc3cn2)cn1 [Compound 3773, N-(6-(1-Methyl-1H-pyrazol-4-yl)-2,7-naphthyridin-3-yl)-2-(piperazin-1-yl) isonicotinamide] | 16 nM | 852 nM | > 10000 nM | 268 nM | 305 nM | 5640 nM | – | 2820 nM | > 10000 nM | 1.1% | 3320 nM | – | –
10 | O=C(Nc1cc2cc(-c3cncs3)ncc2cn1)C1CCN(C2COC2)CC1 [Compound 4244, 1-(Oxetan-3-yl)-N-(6-(thiazol-5-yl)-2,7-naphthyridin-3-yl)piperidine-4-carboxamide] | 4 nM | 30 nM | 284 nM | 157 nM | > 10000 nM | > 10000 nM | 19.9% | 863 nM | > 10000 nM | 6.9% | > 10000 nM | – | 4.9%
11 | Cc1ncc(-c2ccc3cnc(NC(=O)C4CCN(C(=O)CN5CCCC5)CC4)cc3n2)s1 [Compound 4561, N-(2-(2-Methylthiazol-5-yl)-1,6-naphthyridin-7-yl)-1-(2-(pyrrolidin-1-yl)acetyl)piperidine-4-carboxamide] | 7 nM | 182 nM | 2100 nM | 306 nM | 129 nM | > 10000 nM | 49.5% | 953 nM | 4560 nM | – | 664 nM | – | –
